Results as given in PMC12441861, “Next-Generation Lipid Prodrugs Orally Deliver Tenofovir via Enhanced Chylomicron Incorporation” (ACS Pharmacology & Translational Science, 2025).
Where two headings read alike, the source gives them in different places.

Tests used:
[1] = Metabolic stability in human liver microsomes; assay type: in vitro ADME; details: pH 7.4, read-out: Metabolic Stability HLM t1/2
Protocol: Assays employed human liver microsomes (HLMs, 20 mg/mL) from Xenotech. A 10 mM NADPH stock was prepared in deionized H2O, and test compounds were dissolved in 100% MeOH to a final concentration of 10 mM. The stock solutions were diluted to 500 μM in 100 mM potassium phosphate buffer (pH 7.4), keeping the final MeOH concentration below 0.2%. Reaction mixtures were prepared by combining 928 μL phosphate buffer, 55 μL liver microsomes, and the test compound solution to a final concentration of 3 μM. Verapamil was used as a positive control. The reactions were initiated with the addition of 110 μL of 10 mM NADPH. Aliquots were taken in duplicate at 0, 5, 10, 15, and 30 min, quenched with 100 μL of cold MeOH containing 2 μM internal standard (d 5-7-ethoxy coumarin), and centrifuged at 12,000 RCF for 5 min. The supernatants were then transferred to LC-MS vials for analysis. The average of each duplicate was normalized to the 0 min time point, representing 100% remaining (0% metabolism).

Cytotoxicity, MTT assay = details: human, TZM-bl cells
Protocol: To measure cytotoxicity, HeLa-derived TZM-bl cells , were treated with serial dilutions of each drug, and viability was assessed after 48 h. Two methods were used: an ATP luminescence assay, which measures cellular ATP levels as an indicator of metabolic activity (compounds 8a–d), and an MTT assay, which evaluates cell viability via mitochondrial enzymatic activity (compounds 15b, 21a, and 21b).
The TZM-bl cell line (BEI Resources, ARP-8129) was used to evaluate both cell viability and HIV pseudovirus infectivity reduction. Cytotoxicity in this cell line was measured via two methods. The first method, an ATP luminescence assay, was used for compounds 15a, 15b, 21a, and 21b as such: 6000 TZM-bl cells per well were seeded in a 96-well plate and incubated at 37 °C with 5% CO2 for 24 h. Compounds were prepared as serial dilutions (final concentrations of 1, 0.2, 0.04, 0.008, and 0.0016 μM) in complete DMEM with DEAE-Dextran at 40 μg/mL to mimic HIV infectivity conditions. Solutions were added to the cells and incubated for another 48 h. Viability was assessed using the Promega Cell Titer Glow (CTG) Assay (cat No. G9242) by adding a 50% PBS-CTG solution to each well and measuring luminescence, which correlates with ATP levels, on an Agilent BioTek Synergy HT reader. Cytotoxicity of compounds 8a–d was determined using a colorimetric assay based the conversion of MTT (3-(4,5-dimethylthiazol-2-yl)-2,5-diphenyltetrazolium bromide) to formazan as described previously. TZM-bl cells were plated into 96-well tissue culture plates 1 day prior to performing the MTT assay. A series of 10 3-fold dilutions of each compound was performed from a starting concentration of 10 mM and each dilution was tested for a reduction in cell viability according to the manufacturer’s instructions (CyQuant MTT Cell Viability Assay, ThermoFisher, V13154). Wells containing TZM-bl cells with media only were used as a control. Briefly, serial dilutions of each test compound were added to the plated TZM-bl cells. At 48 h, the media was removed and replaced with 100 mL of fresh culture medium. 10 mL of 12 mM MTT solution was added to each well and incubated at 37 °C for 4 h. 85 mL of supernatant was then removed from each well and replaced with 50 mL of DMSO. Following a 10 min incubation at 37 °C, the absorbance of each well was determined at 540 nm using a Biotek Synergy Neo2 multimode reader and Gen5 v3.02 software.

[2] = cited from earlier work
[3] = cited from earlier work; remark: listed apart in the source
Caco-2 cell-derived CMs = assay type: in vitro ADME, human; details: 10 μM test drug, Caco-2 cells
Protocol: [formula] 1 Chylomicron (CM) Isolation and Drug Quantification Methods ^a a (1) Caco-2 cells were grown to confluence. (2) Lipid mix was added to media (final drug concentration of 10 μM), and cells were incubated for 4 h. (3) Cells were washed 3× with PBS. (4) Cells were incubated in fresh media overnight. (5) CM-containing media was collected. (6) Media was combined with a 1.20 g/mL NaCl solution in an ultracentrifugation tube, 500 μL H2O was carefully layered on top, and the mixture was centrifuged at 10,950 RCF for 3 h. (7) The CM-containing upper layer was carefully isolated with a fine-tip pipette. (8) Test drug was then extracted from the CM layer with 70% ACN and quantified using LC-MS/MS.
With the presence of CMs in isolated Caco-2 cell extracts confirmed and reproducibility validated across replicates and different drugs, we were eager to investigate drug incorporation during CM biogenesis in vitro. Accordingly, we added test compound (Figure ) to differentiated Caco-2 cells along with the lipid mix to a final test drug concentration of 10 μM. While 10 μM was selected as a standard concentration for these studies, higher concentrations could allow detection of other compounds with low CM association in future experiments. In either case, CMs secreted by Caco-2 cells can be isolated postincubation, and drug concentrations within CMs can be assessed using highly sensitive LC-MS/MS methodology. Positive (high c Log D) and negative (low c Log D) control compounds were selected to validate this assay. […] Given these properties, we expected CAB to readily package into CMs in vitro. […]. […] This sets the stage for quantitative comparisons of TXL and its functionalized analogs, which are detailed below.
At 14-days postconfluence, Caco-2 cells were incubated in a lipid mixture to induce secretion of CMs. For the lipid solution, oleic acid (50 mg), lecithin (40 mg), and sodium taurocholate (48 mg) were weighted out into an Eppendorf tube, and the volume was brought up to 900 μL with PBS, followed by vigorous vortexing to ensure sample homogeneity. This 100× lipid mixture was then diluted into growth media to achieve the desired concentrations (2 mM oleic acid, 1.36 mM lecithin, 1 mM sodium taurocholate) by adding 500 μL of the lipid mixture to 49.5 mL of media. The lipid-supplemented media was thoroughly mixed and sterilized by filtration using a 250 mL sterile vacuum filter. For the drug-exposed CM experiments, each test compound was dissolved in 2 mM human serum albumin (HAS, Sigma, essentially fatty acid free) in DPBS, then added to 10 mL aliquots of lipid-containing media to achieve a final concentration of 10 μM. Subsequently, lipid-containing media was added to Caco-2 cells and incubated for 4 h at 37 °C. After incubation, cells were washed twice with PBS then incubated for 4, 8, or 20 h at 37 °C in fresh, colorless growth medium. Media was collected into 15 mL falcon tubes and centrifuged at 2000g to remove cell debris. Postcentrifugation, the supernatant was transferred to 50 mL Nalgene Oak Ridge High-Speed PPCO Centrifuge Tubes. Next, to adjust the density for ultracentrifugation, 1.19 g of NaCl in 2 mL of deionized (DI) H2O were added to reach a final volume of 5 mL, corresponding to a density of 1.20 g/mL. This mixture was dissolved by vortexing and balanced by weight. 500 μL of DI H2O was carefully overlaid onto the mixture. Ultracentrifugation was performed for 2 h and 30 min at 10,920 relative centrifugal force (RCF). Immediately after centrifugation, the top 500 μL layer, containing CMs, was carefully collected using a gel-loading pipet tip.
To an aliquot of CM extract was added an equal volume of ACN into 1.5 mL Eppendorf tubes. Tubes were shaken for 1 h at rt then centrifuged at 15,000 RCF to remove debris. The clear supernatant was transferred to a glass vial and concentrated under reduced pressure to yield a dry solid. Sample was then reconstituted in 70% ACN in H2O, filtered and then analyzed. […]

SMILES: CCCCCCCCCCCCCCCCOC[C@@H](COP(=O)(O)CO[C@H](C)Cn1cnc2c(N)ncnc21)OCc1ccccc1 [8a, Ammonium[(1R)-2-(6-aminopurin-9-yl)-1-methyl-ethoxy]methyl-[(2S)-2-benzyloxy-3-hexadecoxy-propoxy]phosphinate]
- half-life at 3 µM [1]: > 2 h
- CC50 at 48 h (Cytotoxicity, MTT assay): > 10 µM

SMILES: CCCCCCCCCCCCCCCCCCOC[C@@H](COP(=O)(O)CO[C@H](C)Cn1cnc2c(N)ncnc21)OCc1ccccc1 [8b, Ammonium[(1R)-2-(6-aminopurin-9-yl)-1-methyl-ethoxy]methyl-[(2S)-2-benzyloxy-3-octadecoxy-propoxy]phosphinate]
- half-life at 3 µM [1]: > 2 h
- CC50 at 48 h (Cytotoxicity, MTT assay): > 10 µM

SMILES: CCCCCCCCCCCCCCCCOC[C@H](COP(=O)(O)CO[C@H](C)Cn1cnc2c(N)ncnc21)OCc1ccccc1 [8c, Ammonium[(1R)-2-(6-aminopurin-9-yl)-1-methyl-ethoxy]methyl-[(2R)-2-benzyloxy-3-hexadecoxy-propoxy]phosphinate]
- half-life at 3 µM [1]: > 2 h
- CC50 at 48 h (Cytotoxicity, MTT assay): > 10 µM

SMILES: CCCCCCCCCCCCCCCC(=O)OCC(COC(=O)CCCCCCCCCCCCCCC)OC(=O)CC(C)CC(=O)Oc1cc(C)cc(C)c1C(C)(C)CC(=O)Oc1ccc2c3c1O[C@H]1[C@@]4(OC)CC[C@@]5(C[C@@H]4[C@](C)(O)C(C)(C)C)[C@@H](C2)N(CC2CC2)CC[C@]315 (stereo partly shown) [BUP-TML-C5βMe-TG]
- oral dose recovered in mesenteric lymph ([2]; within 6 h, ref Quach 2022): 44.7% oral dose recovered in mesenteric lymph within 6 h
- Δ Oral Availability (% versus Parent) ([3]; parent Buprenorphine, ref Quach 2022): 83%

SMILES: CO[C@H]1C(=O)[C@]2(C)[C@@H](OC)C[C@H]3OC[C@@]3(OC(C)=O)[C@H]2[C@H](OC(=O)c2ccccc2)[C@]2(O)C[C@H](OC(=O)[C@H](O)[C@@H](NC(=O)OC(C)(C)C)c3ccccc3)C(C)=C1C2(C)C [CAB, Cabazitaxel, reference compound]
- detection of compound in CM extract by LC-MS/MS (Caco-2 cell-derived CMs): presence

SMILES: CCCCCCCCCCCCCCCCCCCC(=O)OCC(COP(=O)([O-])OCC[N+](C)(C)C)OC(=O)C(CCC)CCC (stereo not shown) [DP-VPA]
- orally-dosed drug recovered in mesenteric lymph ([2]; ref Dahan 2008): 60% orally-dosed drug recovered in mesenteric lymph
- Δ Oral Availability (% versus Parent) ([3]; parent Valproic Acid, ref Dahan 2008): 9%

SMILES: CCCCCCCCCCCCCCCC(=O)OCC(COC(=O)CCCCCCCCCCCCCCC)OC(=O)CCCSSCCCC(=O)O[C@@H](C(=O)O[C@H]1C[C@@]2(O)[C@@H](OC(=O)c3ccccc3)[C@@H]3[C@]4(OC(C)=O)CO[C@@H]4C[C@H](O)[C@@]3(C)C(=O)[C@H](O)C(=C1C)C2(C)C)[C@@H](NC(=O)OC(C)(C)C)c1ccccc1 [DTX-S-S-TG]
- Evidence of Lymphatic Uptake ([2]; ref Tian 2019): Cycloheximide inhibition reduces lymphatic transport and prodrug bioavailability
- Δ Oral Availability (% versus Parent) ([3]; parent Docetaxel, ref Tian 2019): 44%

SMILES: CN(C)C(=N)N=C(N)N [MET, metformin, reference compound]
- detection of compound in CM extract by LC-MS/MS (Caco-2 cell-derived CMs): absence

SMILES: CCCCCCCCCCC(=O)O[C@H]1CC[C@H]2[C@@H]3CCC4=CC(=O)CC[C@]4(C)[C@H]3CC[C@]12C [Testosterone Undecanoate (TU), Testosterone Undecanoate]
- lymphatic transport as share of systemic availability ([2]; oral administration, ref not printed in text (Table 1: Shackleford 2003)): 91.5–99.7%
- Δ Oral Availability (% versus Parent) ([3]; parent Testosterone, ref Shackleford 2003): 7%

SMILES: CCCCCCCCCCCCCCCC(=O)OCC(COC(=O)CCCCCCCCCCCCCCC)OC(=O)CC(C)CC(=O)OCOC1CCC2C3CCC4=CC(=O)CCC4(C)C3CCC12C (stereo not shown) [Testosterone-ASI-C5-βMe-TG]
- orally-dosed drug recovered in mesenteric lymph ([2]; ref Hu 2016): 28% orally-dosed drug recovered in mesenteric lymph (0% for parent)
- Δ Oral Availability (% versus Parent) ([3]; parent Testosterone, ref Hu 2016): 90%

SMILES: C[C@]12CC[C@H]3[C@@H](CCC4=CC(=O)CC[C@@]43C)[C@@H]1CC[C@@H]2O [Testosterone]
- orally-dosed drug recovered in mesenteric lymph ([2]; in vivo, po): 28% orally-dosed drug recovered in mesenteric lymph (0% for parent)
